Reference: patent US7091038B2, “Ecdysone receptor-based inducible gene expression system” (RheoGene, Inc., priority 2000, dated 2006)

Key:
CfVgRXR + MmRXR [1] = test: Transactivation of reporter gene through switch 1.9 in 3T3 cells; type: cell-based, Choristoneura fumiferana; Mus musculus; details: switch 1.9, pIND(SP1)LacZ
Experimental: (§1) This example was prepared in the same way as switch 1.8 except DmEcR was replaced with a truncated CfEcR comprising a partial A/B domain and the complete CDEF domains [SEQ ID NO: 70 (polynucleotide) and SEQ ID NO: 71 (polypeptide)].
(§2) The cells were harvested and reporter activity was assayed.
(§3) The cells were plated when they reached 50% confluency.
(§4) Cells were harvested 24–48 hr after adding ligands. […] Twenty μl of lysate was assayed.

CfVgRXR [2] = test: Transactivation of reporter gene through switch 1.10 in CHO cells; type: cell-based, Choristoneura fumiferana; details: switch 1.10, pIND(SP1)LacZ
Experimental: (§5) This example was prepared in the same way as switch 1.9 except MmRXR (SEQ ID NO: 62) was deleted.
as §2, §4

GAL4USP + VP16CfEcR [3] = test: Transactivation of reporter gene through switch 1.5 in 3T3 cells; type: cell-based, Choristoneura fumiferana; details: switch 1.5, pGAL4RELuc
Experimental: (§6) This construct was prepared in the same way as switch 1.3 except MmRXRDEF was replaced with CfUSPDEF (SEQ ID NO: 67).
as §2, §3, §4

DmVgRXR + MmRXR = DmVgRXR + MmRXR (Drosophila melanogaster, UniProt P34021, E282G/G283S/G286V); test: Transactivation of reporter gene through switch 1.8 in 293 cells; type: cell-based, Drosophila melanogaster; Mus musculus; parameters: host or cells: CHO, NIH3T3, 293 or CV1 cells; details: switch 1.8, pIND(SP1)LacZ
Excerpt: This system was purchased from Invitrogen Corp., Carlsbad, California. It comprises a Drosophila melanogaster EcR (“DmEcR”) with a modified DNABD fused to VP16AD and placed under the control of a CMV promoter (SEQ ID NO: 68). Full length MmRXR (SEQ ID NO: 62) was placed under the control of the RSV promoter (SEQ ID NO: 69). The reporter, pIND(SP1)LacZ, contains five copies of a modified ecdysone response element (“EcRE”, E/GRE), three copies of an SPI enhancer, and a minimal heat shock promoter, all of which were placed upstream to the LacZ reporter gene.
as §2
(§7) The same procedures described for CHO were followed for 293 cells except that the cells were plated in biocoated plates to avoid clumping.
as §4

GAL4RXR + VP16CfEcR [4] = test: Transactivation of reporter gene through switch 1.3 in 293 cells; type: cell-based, Mus musculus; Choristoneura fumiferana; details: switch 1.3, pGAL4RELuc
Experimental: as §2, §7, §4

GAL4EcR + VP16USP [5] = test: Transactivation of reporter gene through switch 1.2 in CHO cells; type: cell-based, Choristoneura fumiferana; details: switch 1.2, pGAL4RELuc
Experimental: (§8) This construct was prepared in the same way as in switch 1.1 above except MmRXRDEF was replaced with the D, E and F domains from spruce budworm USP (“CfUSPDEF”; SEQ ID NO: 67). The constructs used in this example are similar to those disclosed in U.S. Pat. No. 5,880,333 except that Choristoneura fumiferana USP rather than Drosophila melanogaster USP was utilized.
as §2, §4

GAL4CfEcRVP16 [6] = test: Transactivation of reporter gene through switch 1.6 in 293 cells; type: cell-based, Choristoneura fumiferana; details: switch 1.6, pGAL4RELuc
Experimental: (§9) This construct was prepared so that both the GAL4 DNABD and the VP16AD were placed on the same molecule. GAL4DNABD (SEQ ID NO: 43) and VP16AD (SEQ ID NO: 49) were fused to CfEcRDEF (SEQ ID NO: 3) at N-and C-termini respectively.
as §2, §7, §4

GAL4RXR + VP16DmEcR = biological target: T1, GAL4RXR + VP16DmEcR (Drosophila melanogaster, UniProt P34021); test: Transactivation of reporter gene through switch 1.4 in 293 cells; type: cell-based, Mus musculus; Drosophila melanogaster; details: switch 1.4, pGAL4RELuc
T1 sequence (P34021 254-878): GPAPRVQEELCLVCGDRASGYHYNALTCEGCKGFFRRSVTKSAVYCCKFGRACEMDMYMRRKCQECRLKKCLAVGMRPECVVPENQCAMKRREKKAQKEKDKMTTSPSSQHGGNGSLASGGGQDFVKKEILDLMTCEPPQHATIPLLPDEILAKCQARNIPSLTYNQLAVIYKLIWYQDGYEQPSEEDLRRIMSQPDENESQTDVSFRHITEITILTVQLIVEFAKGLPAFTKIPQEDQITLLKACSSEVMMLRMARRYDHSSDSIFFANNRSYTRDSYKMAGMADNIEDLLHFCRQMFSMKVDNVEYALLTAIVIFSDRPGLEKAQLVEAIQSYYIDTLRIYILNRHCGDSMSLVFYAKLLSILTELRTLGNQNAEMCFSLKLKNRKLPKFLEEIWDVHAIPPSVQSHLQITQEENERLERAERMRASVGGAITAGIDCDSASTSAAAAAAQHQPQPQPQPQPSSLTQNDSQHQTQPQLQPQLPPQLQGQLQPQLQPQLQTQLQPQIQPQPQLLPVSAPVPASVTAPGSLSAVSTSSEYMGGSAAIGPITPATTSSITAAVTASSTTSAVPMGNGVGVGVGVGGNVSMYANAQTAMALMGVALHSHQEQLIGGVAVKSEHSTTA
T1 sequence (P28700 206-467 partner limits assumed): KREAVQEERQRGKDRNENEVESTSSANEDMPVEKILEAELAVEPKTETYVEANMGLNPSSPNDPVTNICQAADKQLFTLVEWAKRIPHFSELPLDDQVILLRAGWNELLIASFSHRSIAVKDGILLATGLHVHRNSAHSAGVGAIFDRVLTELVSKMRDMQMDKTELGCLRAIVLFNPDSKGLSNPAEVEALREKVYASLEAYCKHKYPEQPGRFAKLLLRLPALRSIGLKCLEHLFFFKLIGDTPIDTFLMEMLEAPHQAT
Experimental: This construct was prepared in the same way as switch 1.3 except CfEcRCDEF was replaced with DmEcRCDEF (SEQ ID NO: 6).
as §2, §7, §4

CfVgRXR + MmRXR [7] = test: Transactivation of reporter gene through switch 1.9 in CHO cells; type: cell-based, Choristoneura fumiferana; Mus musculus; details: switch 1.9, pIND(SP1)LacZ
Experimental: as §1, §2, §4

CfVgRXR [8] = test: Transactivation of reporter gene through switch 1.10 in 3T3 cells; type: cell-based, Choristoneura fumiferana; details: switch 1.10, pIND(SP1)LacZ
Experimental: as §5, §2, §3, §4

GAL4RXR + VP16CfEcR [9] = test: Transactivation of reporter gene through switch 1.3 in CHO cells; type: cell-based, Mus musculus; Choristoneura fumiferana; details: switch 1.3, pGAL4RELuc
Experimental: as §2, §4

GAL4USP + VP16CfEcR [10] = test: Transactivation of reporter gene through switch 1.5 in 293 cells; type: cell-based, Choristoneura fumiferana; details: switch 1.5, pGAL4RELuc
Experimental: as §6, §2, §7, §4

GAL4EcR + VP16USP [11] = test: Transactivation of reporter gene through switch 1.2 in CV1 cells; type: cell-based, Choristoneura fumiferana; details: switch 1.2, pGAL4RELuc
Experimental: as §8, §2, §3
(§10) The same procedures described for NIH3T3 cells were followed for CV1 cells
as §4

GAL4CfEcRVP16 [12] = test: Transactivation of reporter gene through switch 1.6 in 3T3 cells; type: cell-based, Choristoneura fumiferana; details: switch 1.6, pGAL4RELuc
Experimental: as §9, §2, §3, §4

GAL4CfEcRVP16 [13] = test: Transactivation of reporter gene through switch 1.6 in CV1 cells; type: cell-based, Choristoneura fumiferana; details: switch 1.6, pGAL4RELuc
Experimental: as §9, §2, §3, §10, §4

DmVgRXR + MmRXR, sequence (P28700 whole entry, the tested form may be a part): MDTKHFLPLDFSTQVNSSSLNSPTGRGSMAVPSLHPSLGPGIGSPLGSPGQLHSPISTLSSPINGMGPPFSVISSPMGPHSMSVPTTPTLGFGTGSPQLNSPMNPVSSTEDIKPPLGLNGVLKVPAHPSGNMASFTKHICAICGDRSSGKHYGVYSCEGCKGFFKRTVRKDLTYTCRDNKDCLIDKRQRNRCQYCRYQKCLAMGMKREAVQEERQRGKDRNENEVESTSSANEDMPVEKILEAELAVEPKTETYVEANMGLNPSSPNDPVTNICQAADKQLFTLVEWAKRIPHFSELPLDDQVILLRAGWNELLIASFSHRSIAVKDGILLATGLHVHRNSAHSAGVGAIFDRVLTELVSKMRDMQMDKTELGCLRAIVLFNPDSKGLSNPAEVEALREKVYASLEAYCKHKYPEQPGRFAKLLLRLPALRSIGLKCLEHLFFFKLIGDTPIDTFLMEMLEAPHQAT
DmVgRXR + MmRXR, sequence (P34021 whole entry E282G/G283S/G286V, the tested form may be a part): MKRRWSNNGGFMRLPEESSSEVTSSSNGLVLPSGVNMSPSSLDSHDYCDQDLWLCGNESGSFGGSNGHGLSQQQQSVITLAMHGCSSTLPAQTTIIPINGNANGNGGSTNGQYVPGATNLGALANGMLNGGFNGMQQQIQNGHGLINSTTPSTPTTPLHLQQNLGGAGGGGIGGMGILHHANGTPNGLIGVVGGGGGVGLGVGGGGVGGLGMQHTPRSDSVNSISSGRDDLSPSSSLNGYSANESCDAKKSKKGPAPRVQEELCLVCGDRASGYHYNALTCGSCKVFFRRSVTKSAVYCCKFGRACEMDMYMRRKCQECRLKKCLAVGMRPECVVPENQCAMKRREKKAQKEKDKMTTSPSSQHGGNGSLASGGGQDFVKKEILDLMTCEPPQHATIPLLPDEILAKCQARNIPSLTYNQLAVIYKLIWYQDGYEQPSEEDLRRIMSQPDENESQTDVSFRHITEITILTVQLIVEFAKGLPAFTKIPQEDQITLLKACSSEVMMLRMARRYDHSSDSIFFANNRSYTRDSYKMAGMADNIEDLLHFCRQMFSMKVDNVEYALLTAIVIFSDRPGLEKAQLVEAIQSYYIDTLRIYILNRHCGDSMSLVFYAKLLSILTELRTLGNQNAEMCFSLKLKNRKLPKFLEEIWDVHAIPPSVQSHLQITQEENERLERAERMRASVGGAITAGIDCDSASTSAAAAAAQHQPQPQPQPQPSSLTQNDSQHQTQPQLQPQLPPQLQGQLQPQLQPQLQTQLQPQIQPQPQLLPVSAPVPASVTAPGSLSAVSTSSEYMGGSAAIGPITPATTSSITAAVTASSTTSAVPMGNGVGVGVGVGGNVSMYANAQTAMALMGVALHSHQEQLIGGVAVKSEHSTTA

CCc1c(OC)cccc1C(=O)NN(C(=O)c1cc(C)cc(C)c1)C(C)(C)C [N-(2-ethyl-3-methoxybenzoyl)-N′-(3,5-dimethylbenzoyl)-N′-t-butylhydrazine]
Mean Fold Activation Through N-(2-ethyl-3-methoxybenzoyl)-N′-(3,5-dimethylbenzoyl)-N′-t-butylhydrazine (CfVgRXR + MmRXR [1]): 19 fold
Mean Fold Activation with 50 μM N-(2-ethyl-3-methoxybenzoyl)-N′-(3,5-dimethylbenzoyl)-N′-t-butylhydrazine (CfVgRXR [2]): 29 fold
Mean Fold Activation Through N-(2-ethyl-3-methoxybenzoyl)-N′-(3,5-dimethylbenzoyl)-N′-t-butylhydrazine (GAL4USP + VP16CfEcR [3]): 3 fold
Mean Fold Activation Through N-(2-ethyl-3-methoxybenzoyl)-N′-(3,5-dimethylbenzoyl)-N′-t-butylhydrazine (DmVgRXR + MmRXR): 21 fold
Mean Fold Activation Through N-(2-ethyl-3-methoxybenzoyl)-N′-(3,5-dimethylbenzoyl)-N′-t-butylhydrazine (GAL4RXR + VP16CfEcR [4]): 17 fold
Mean Fold Activation with 50 μM N-(2-ethyl-3-methoxybenzoyl)-N′-(3,5-dimethylbenzoyl)-N′-t-butylhydrazine (GAL4EcR + VP16USP [5]): 2 fold
Mean Fold Activation Through N-(2-ethyl-3-methoxybenzoyl)-N′-(3,5-dimethylbenzoyl)-N′-t-butylhydrazine (GAL4CfEcRVP16 [6]): 3 fold
Mean Fold Activation Through N-(2-ethyl-3-methoxybenzoyl)-N′-(3,5-dimethylbenzoyl)-N′-t-butylhydrazine (GAL4RXR + VP16DmEcR): 3 fold
Mean Fold Activation with 50 μM N-(2-ethyl-3-methoxybenzoyl)-N′-(3,5-dimethylbenzoyl)-N′-t-butylhydrazine (CfVgRXR + MmRXR [7]): 27 fold
Mean Fold Activation Through N-(2-ethyl-3-methoxybenzoyl)-N′-(3,5-dimethylbenzoyl)-N′-t-butylhydrazine (CfVgRXR [8]): 2 fold
Mean Fold Activation with 50 μM N-(2-ethyl-3-methoxybenzoyl)-N′-(3,5-dimethylbenzoyl)-N′-t-butylhydrazine (GAL4RXR + VP16CfEcR [9]): 85 fold
Mean Fold Activation Through N-(2-ethyl-3-methoxybenzoyl)-N′-(3,5-dimethylbenzoyl)-N′-t-butylhydrazine (GAL4USP + VP16CfEcR [10]): 2 fold
Mean Fold Activation Through N-(2-ethyl-3-methoxybenzoyl)-N′-(3,5-dimethylbenzoyl)-N′-t-butylhydrazine (GAL4EcR + VP16USP [11]): 2 fold
Mean Fold Activation Through N-(2-ethyl-3-methoxybenzoyl)-N′-(3,5-dimethylbenzoyl)-N′-t-butylhydrazine (GAL4CfEcRVP16 [12]): 7 fold
Mean Fold Activation Through N-(2-ethyl-3-methoxybenzoyl)-N′-(3,5-dimethylbenzoyl)-N′-t-butylhydrazine (GAL4CfEcRVP16 [13]): 6 fold
